# Experimental data as given in patent publication US9718790B2, “Triazine derivative and pharmaceutical composition having an analgesic activity comprising the same” (SHIONOGI & CO., LTD., priority 2010, dated 2017).
# Target: human P2X3 receptor (Homo sapiens (Human), UniProt P56373)
# Assay: Evaluation of human P2X3 receptor inhibitory activity (Fluo-3 calcium fluorescence, FDSS 3000, ATP stimulation);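 note: stimulus was 50 nM ATP with fluorescence followed for 3 min, and the response per well was peak post-ATP fluorescence divided by the reading at measurement start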
# Assay type: cell-based
# Details: C6BU-1 cells stably expressing human P2X3 receptor
# human P2X3 receptor, sequence (P56373 whole entry): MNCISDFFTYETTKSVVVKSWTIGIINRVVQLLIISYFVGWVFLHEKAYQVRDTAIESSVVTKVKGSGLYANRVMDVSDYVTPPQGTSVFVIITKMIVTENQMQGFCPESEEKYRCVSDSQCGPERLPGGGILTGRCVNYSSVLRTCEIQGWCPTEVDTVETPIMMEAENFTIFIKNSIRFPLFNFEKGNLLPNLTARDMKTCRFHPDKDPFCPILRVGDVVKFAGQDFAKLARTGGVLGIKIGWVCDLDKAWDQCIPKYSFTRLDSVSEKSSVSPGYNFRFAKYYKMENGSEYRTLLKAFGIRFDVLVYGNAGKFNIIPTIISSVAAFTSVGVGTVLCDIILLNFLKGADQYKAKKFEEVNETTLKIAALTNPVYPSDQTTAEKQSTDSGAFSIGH
row,SMILES,IC50
1,Cc1cc(/N=c2\[nH]c(=O)n(C[C@H](C)C(=O)O)c(=O)n2Cc2ccc(Cl)cc2)ccc1OCC(F)F [Compound I-0741],50 nM
2,Cc1oc2ccc(/N=c3\[nH]c(=O)n(CC4COC(C)(C)OC4)c(=O)n3Cc3ccc(Cl)cc3)cc2c1C [Compound I-2071],8 nM
3,COc1cc(/N=c2\[nH]c(=O)n(C[C@H]3COC(C)(C)O3)c(=O)n2Cc2ccc(Cl)cc2)ccc1OC(C)C [Compound I-2001],5 nM
4,CC(C)Oc1ccc(/N=c2\[nH]c(=O)n(CC(=O)N3CCNCC3)c(=O)n2Cc2ccc(Cl)cc2)cc1Cl [Compound I-0742],38 nM
5,Cc1nc2ccc(/N=c3\[nH]c(=O)n([C@@H](C)[C@@H](C)C(=O)O)c(=O)n3Cc3ccc(Cl)cc3)cc2s1 [Compound I-1469],9 nM
6,Cc1ccc(Cn2c(=O)n(CCC(=O)O)c(=O)[nH]/c2=N\c2cccc(C(F)(F)F)c2C)cc1 [Compound I-2085],852 nM
7,CCCCOc1ccc(/N=c2\[nH]c(=O)n(C[C@H](C)C(=O)OC)c(=O)n2Cc2ccc(Cl)cc2)cc1 [Compound I-0814],17 nM
8,Cn1c(=O)[nH]/c(=N\c2ccc(Oc3cncc(C(=O)O)c3)cc2)n(Cc2ccc(Cl)cc2)c1=O [Compound I-2103],20 nM
9,Cc1ccc(Cn2c(=O)n(CCC(=O)O)c(=O)[nH]/c2=N\c2cccc(C(F)(F)F)c2F)cc1 [Compound I-2086],234 nM
10,COC(=O)[C@H](C)[C@H](C)n1c(=O)[nH]/c(=N\c2ccc(CC(C)C)c(OC)c2)n(Cc2ccc(C)cc2)c1=O [Compound I-1364],43 nM
11,CCc1cc(/N=c2\[nH]c(=O)n(CCC(=O)O)c(=O)n2Cc2ccc(C)cc2)ccc1OC(C)C [Compound I-1199],36 nM
12,Cc1cc(/N=c2\[nH]c(=O)n(C[C@@H](C)C(=O)O)c(=O)n2CC2CCCCC2)ccc1OC(C)C [Compound I-0647],316 nM
13,COc1cc(/N=c2\[nH]c(=O)n(CCC(=O)O)c(=O)n2Cc2ccc(Cl)cc2)ccc1CC(C)C [Compound I-1355],177 nM
14,CCCCc1ccc(/N=c2\[nH]c(=O)n(C[C@H](C)C(=O)O)c(=O)n2Cc2ccc(Cl)cc2)cc1 [Compound I-0624],42 nM
15,Cn1c(=O)[nH]/c(=N\c2ccc(Oc3cccc(C(=O)O)c3)cc2)n(Cc2ccc(Cl)cc2)c1=O [Compound I-2064],40 nM
16,CCn1c(=O)[nH]/c(=N\c2ccc(Oc3cncc(C(=O)O)c3)cc2)n(CC2CCC(C)(C)CC2)c1=O [Compound I-2207],69 nM
17,CCn1c(=O)[nH]/c(=N\c2ccc(Oc3cncc(C(=O)O)c3)cc2)n(Cc2ccc(Cl)cn2)c1=O [Compound I-2164],125 nM
18,COC(=O)c1cccc(Oc2ccc(/N=c3\[nH]c(=O)n(C)c(=O)n3Cc3ccc(C)cc3)cc2)c1 [Compound I-2031],52 nM
19,COC(=O)c1ccc(Cn2c(=O)[nH]/c(=N\c3ccc(OC(C)C)c(C)c3)n(Cc3ccc(Cl)cc3)c2=O)o1 [Compound I-0700],6 nM
20,O=C(Cn1c(=O)[nH]/c(=N\c2ccc(Oc3ccnc(O)c3)cc2)n(Cc2ccc(Cl)cc2)c1=O)NCCO [Compound I-1979],4 nM
21,Cc1ccc(Cn2c(=O)n([C@H](C)[C@H](C)C(=O)O)c(=O)[nH]/c2=N\c2ccc(OC(C)C)c(F)c2)cc1 [Compound I-1338],36 nM
22,CCOc1ccc(/N=c2\[nH]c(=O)n(C[C@@H](C)C(=O)O)c(=O)n2CC2CCCCC2)cc1Cl [Compound I-0648],336 nM
23,CCn1c(=O)[nH]/c(=N\c2ccc(Oc3cncc(C(=O)OC)c3)cc2)n(Cc2ccc(Cl)cn2)c1=O [Compound I-2154],133 nM
24,C[C@H](C(=O)O)[C@@H](C)n1c(=O)[nH]/c(=N\c2ccc(OCC3CC3)cc2)n(Cc2ccc(Cl)cc2)c1=O [Compound I-1344],33 nM
25,Cc1ccc(Cn2c(=O)n(C[C@H](C)C(=O)O)c(=O)[nH]/c2=N\c2ccc(OC3CCCCC3)cc2)cc1 [Compound I-1222],17 nM
26,CCn1c(=O)[nH]/c(=N\c2ccc(Oc3ccc(C(=O)O)nc3)cc2)n(Cc2ccc(C)cc2)c1=O [Compound I-2116],15 nM
27,CCOC(=O)CCn1c(=O)[nH]/c(=N\c2ccc(OC(C)C)c(Cl)c2)n(CC2CCC3(CC2)CC3)c1=O [Compound I-1449],4 nM
28,CCc1oc2ccc(/N=c3\[nH]c(=O)n(C[C@H](C)C(=O)O)c(=O)n3Cc3ccc(Cl)cc3)cc2c1C [Compound I-1465],6 nM
29,O=C(O)CCn1c(=O)[nH]/c(=N\c2ccc(Oc3ccnc(O)c3)cc2)n(Cc2ccc(Cl)cc2)c1=O [Compound I-1441],9 nM

# Same assay, conditions: C6BU-1 cells stably expressing human P2X3 receptor, Fluo-3 fluorescence, FDSS 3000
row,SMILES,IC50
1,CCCc1nc2ccc(/N=c3\[nH]c(=O)n(CCC(=O)OCC)c(=O)n3Cc3ccc(C)cc3)cc2s1 [Compound I-1558],8 nM
2,C[C@@H](C(=O)O)[C@H](C)n1c(=O)[nH]/c(=N\c2ccc3c(c2)CCCC3)n(Cc2ccc(Cl)cc2)c1=O [Compound I-1796],587 nM
3,CCc1oc2ccc(/N=c3\[nH]c(=O)n(CC(C)(CO)CO)c(=O)n3Cc3ccc(Cl)cc3)cc2c1C [Compound I-1644],5 nM
4,COC(=O)[C@@H](C)Cn1c(=O)[nH]/c(=N\c2ccc3c(c2)CCCO3)n(Cc2ccc(Cl)cc2)c1=O [Compound I-1102],148 nM
5,Cc1ccc(Cn2c(=O)n(C[C@H](C)C(=O)O)c(=O)[nH]/c2=N\c2ccc(OCC3CC3)c(Cl)c2)cc1 [Compound I-0971],30 nM
6,Cc1ccc(Cn2c(=O)n(C[C@H](C)C(=O)O)c(=O)[nH]/c2=N\c2ccc(OC(F)(F)F)c(Cl)c2)cc1 [Compound I-1033],67 nM
7,CCn1c(=O)[nH]/c(=N\c2ccc(Oc3ccnc(C)c3)cc2)n(Cc2ccc(Cl)cc2)c1=O [Compound I-1598],5 nM
8,Cc1ccc(Cn2c(=O)n(CCC(=O)O)c(=O)[nH]/c2=N\c2nc3ccccc3s2)cc1 [Compound I-1674],971 nM
9,COC(=O)Cn1c(=O)[nH]/c(=N\c2ccc3nc(C)sc3c2)n(Cc2ccc(Cl)cc2)c1=O [Compound I-1602],5 nM
10,O=c1[nH]/c(=N\c2ccc(Oc3ccnc(O)c3)cc2)n(Cc2ccc(Cl)cc2)c(=O)n1CCCO [Compound I-1713],3 nM
11,C[C@@H](C(=O)O)[C@H](C)n1c(=O)[nH]/c(=N\c2ccc3c(c2)CCCC3=O)n(Cc2ccc(Cl)cc2)c1=O [Compound I-1784],950 nM
12,COC(=O)[C@@H](C)Cn1c(=O)[nH]/c(=N\c2cccc(SC)c2)n(Cc2ccc(Cl)cc2)c1=O [Compound I-1151],46 nM
13,Cn1c(=O)[nH]/c(=N\c2ccc(Oc3ccnc(O)c3)cc2)n(Cc2ccc(Cl)cc2)c1=O [Compound I-1736],9 nM
14,CCc1oc2ccc(/N=c3\[nH]c(=O)n(CCCNC(C)=O)c(=O)n3Cc3ccc(Cl)cc3)cc2c1C [Compound I-1568],10 nM
15,C[C@@H](Cn1c(=O)[nH]/c(=N\c2ccc3c(c2)CCCO3)n(Cc2ccc(Cl)cc2)c1=O)C(=O)O [Compound I-1103],423 nM
16,Cc1cc(/N=c2\[nH]c(=O)n([C@@H](C)[C@H](C)C(=O)O)c(=O)n2Cc2ccc(Cl)cc2)ccc1OC(C)C [Compound I-1026],182 nM
17,COc1ccc(Oc2ccc(/N=c3\[nH]c(=O)n(CC(=O)O)c(=O)n3Cc3ccc(Cl)cc3)cc2)cn1 [Compound I-1799],382 nM
18,COC(=O)[C@@H](C)Cn1c(=O)[nH]/c(=N\c2ccc(Oc3ccccc3)cc2)n(Cc2ccc(C)cc2)c1=O [Compound I-0990],51 nM

# Same assay, conditions: human P2X3 receptor, Test Example 1
row,SMILES,IC50
1,Cn1c(=O)[nH]/c(=N\c2ccc(Oc3ccc(C(=O)O)nn3)cc2)n(Cc2ccc(Cl)cc2)c1=O [Compound I-2381],54 nM
2,"CCn1c(=O)[nH]/c(=N\c2ccc(Oc3cccc(C#N)c3)cc2)n(Cc2ccc(Cl)cc2)c1=O [Compound I-2305, 1-(4-chlorobenzyl)-6-[4-(3-cyanophenoxy)phenylimino]-3-ethyl-1,3,5-triazinane-2,4-dion]",4 nM
3,CCn1c(=O)[nH]/c(=N\c2ccc(Oc3ccnnc3)cc2)n(Cc2ccc(Cl)cc2)c1=O [Compound I-2600],4 nM
4,CCn1c(=O)[nH]/c(=N\c2ccc3nc(N4CCC4)sc3c2)n(Cc2ccc(Cl)cc2)c1=O [Compound I-2280],127 nM
5,Cc1ccc(Cn2c(=O)n(C)c(=O)[nH]/c2=N\c2ccc(Oc3cc(C(=O)O)ncn3)cc2)cc1 [Compound I-2445],13 nM
6,CCn1c(=O)[nH]/c(=N\c2ccc(Oc3cncc(C(=O)OC)n3)cc2)n(Cc2ccc(Cl)cc2)c1=O [Compound I-2270],< 4 nM
7,NC(=O)Cn1c(=O)[nH]/c(=N\c2ccc(Oc3ccnnc3)cc2)n(Cc2ccc(Cl)cc2)c1=O [Compound I-2695],10 nM
8,Cc1ccc(Cn2c(=O)n(C[C@H](C)C(=O)O)c(=O)[nH]/c2=N\c2ccc(CC(C)C)cc2)cc1 [Compound I-0872],81 nM
9,CCn1c(=O)[nH]/c(=N\c2ccc(Oc3ccnc(NCC(=O)O)c3)cc2)n(Cc2ccc(Cl)cc2)c1=O [Compound I-2556],5 nM
10,C[C@@H](Cn1c(=O)[nH]/c(=N\c2ccc(OCC(F)F)cc2)n(Cc2ccc(Cl)cc2)c1=O)C(=O)O [Compound I-0848],60 nM
11,C=COc1ccc(/N=c2\[nH]c(=O)n(C[C@H](C)C(=O)OC)c(=O)n2Cc2ccc(C)cc2)cc1Cl [Compound I-1548],5 nM
12,CCn1c(=O)[nH]/c(=N\c2ccc(Oc3ccc(C(=O)NC)nn3)cc2)n(Cc2ccc(Cl)cc2)c1=O [Compound I-2533],4 nM
13,CNC(=O)c1cc(Oc2ccc(/N=c3\[nH]c(=O)n(C)c(=O)n3Cc3ccc(Cl)cc3)cc2F)ccn1 [Compound I-2433],5 nM
14,CCn1c(=O)[nH]/c(=N\c2ccc(Nc3ccncc3)cc2)n(Cc2ccc(C)cc2)c1=O [Compound I-2569],162 nM
15,COC(=O)[C@@H](C)Cn1c(=O)[nH]/c(=N\c2cnc(OC3CCC3)c(C)c2)n(Cc2ccc(Cl)cc2)c1=O [Compound I-1479],20 nM
16,Cc1cc(/N=c2\[nH]c(=O)n(C[C@H](C)C(=O)O)c(=O)n2Cc2ccc(Cl)cc2)cnc1OC1CCC1 [Compound I-1483],87 nM
17,Cc1cnc(Oc2ccc(/N=c3\[nH]c(=O)n(CC(CO)CO)c(=O)n3Cc3ccc(Cl)cc3)cc2)s1 [Compound I-2458],3 nM
18,Cc1ccc(Cn2c(=O)n(C)c(=O)[nH]/c2=N\c2ccc(Oc3cccc(C(=O)O)n3)cc2)cc1 [Compound I-2268],6 nM
